In the NIST ThermoML archive (doi:10.1021/je200616t):

What was measured:
[1] = xn = mol fraction of the nth substance listed; conditions: 298.15 K, 101 kPa, Liquid, MP522 conductivity instrument
[2] = 298.15 K; 101 kPa; Liquid; MP522 conductivity instrument

CC[n+]1ccccc1.O=S(=O)([N-]S(=O)(=O)C(F)(F)F)C(F)(F)F [1-ethylpyridinium bis[(trifluoromethyl)sulfonyl]imide] + CO
[1]
Conditions	electrical conductivity [S/m]
x1 = 0.0169	1.42
x1 = 0.0206	1.61
x1 = 0.03	2
x1 = 0.0416	2.42
x1 = 0.0535	2.7
x1 = 0.068	2.93
x1 = 0.089	3.11
x1 = 0.1049	3.17
x1 = 0.1209	3.19
x1 = 0.1541	3.14
x1 = 0.2007	2.95
x1 = 0.2781	2.55
x1 = 0.3667	2.12
x1 = 0.4224	1.9
x1 = 0.5562	1.44
x1 = 0.6863	1.12
x1 = 0.8307	0.863
x1 = 1	0.63

CCCC[n+]1ccccc1.O=S(=O)([N-]S(=O)(=O)C(F)(F)F)C(F)(F)F [1-butylpyridinium bis[(trifluoromethyl)sulfonyl]imide] + CCO
[1]
Conditions	electrical conductivity [S/m]
x1 = 0.02	0.389
x1 = 0.0313	0.543
x1 = 0.0415	0.66
x1 = 0.0601	0.83
x1 = 0.0722	0.915
x1 = 0.103	1.06
x1 = 0.1448	1.16
x1 = 0.1659	1.18
x1 = 0.184	1.19
x1 = 0.196	1.19
x1 = 0.2208	1.18
x1 = 0.2693	1.14
x1 = 0.3122	1.09
x1 = 0.362	1.02
x1 = 0.424	0.926
x1 = 0.4616	0.872
x1 = 0.5169	0.793
x1 = 0.5597	0.735
x1 = 0.6073	0.674
x1 = 0.6706	0.598
x1 = 0.7463	0.516
x1 = 0.8415	0.426
x1 = 0.8925	0.383
x1 = 1	0.307

CC[n+]1ccc(C)cc1.O=S(=O)([N-]S(=O)(=O)C(F)(F)F)C(F)(F)F + CCO
[1]
Conditions	electrical conductivity [S/m]
x1 = 0.0118	0.292
x1 = 0.0152	0.36
x1 = 0.021	0.468
x1 = 0.0327	0.669
x1 = 0.0593	1.04
x1 = 0.07	1.16
x1 = 0.0857	1.31
x1 = 0.1196	1.56
x1 = 0.1573	1.73
x1 = 0.2361	1.87
x1 = 0.3013	1.86
x1 = 0.3773	1.77
x1 = 0.4527	1.65
x1 = 0.53	1.51
x1 = 0.608	1.37
x1 = 0.6908	1.22
x1 = 0.7803	1.07
x1 = 0.8913	0.903
x1 = 1	0.769

CC[n+]1ccccc1.O=S(=O)([N-]S(=O)(=O)C(F)(F)F)C(F)(F)F [1-ethylpyridinium bis[(trifluoromethyl)sulfonyl]imide] + CCO
[1]
Conditions	electrical conductivity [S/m]
x1 = 0.0428	0.803
x1 = 0.0551	0.956
x1 = 0.0755	1.16
x1 = 0.0881	1.26
x1 = 0.1135	1.43
x1 = 0.1366	1.54
x1 = 0.1789	1.67
x1 = 0.2096	1.71
x1 = 0.234	1.73
x1 = 0.2537	1.73
x1 = 0.2781	1.72
x1 = 0.3029	1.7
x1 = 0.3612	1.64
x1 = 0.4404	1.51
x1 = 0.4844	1.44
x1 = 0.5537	1.31
x1 = 0.5948	1.24
x1 = 0.6418	1.16
x1 = 0.7011	1.05
x1 = 0.76	0.954
x1 = 0.8228	0.858
x1 = 0.8845	0.769
x1 = 1	0.629

CCCC[n+]1ccc(C)cc1.O=S(=O)([N-]S(=O)(=O)C(F)(F)F)C(F)(F)F + CCO
[1]
Conditions	electrical conductivity [S/m]
x1 = 0.011	0.243
x1 = 0.0125	0.269
x1 = 0.015	0.311
x1 = 0.0186	0.369
x1 = 0.0258	0.474
x1 = 0.0376	0.623
x1 = 0.0436	0.689
x1 = 0.0602	0.844
x1 = 0.0676	0.901
x1 = 0.0852	1.01
x1 = 0.1143	1.13
x1 = 0.1262	1.16
x1 = 0.1387	1.19
x1 = 0.1537	1.21
x1 = 0.1811	1.23
x1 = 0.2232	1.22
x1 = 0.2748	1.17
x1 = 0.3347	1.1
x1 = 0.3809	1.03
x1 = 0.4405	0.939
x1 = 0.5405	0.793
x1 = 0.642	0.663
x1 = 0.7148	0.579
x1 = 0.8106	0.482
x1 = 0.9328	0.379
x1 = 1	0.333

CCCCC[n+]1ccccc1.O=S(=O)([N-]S(=O)(=O)C(F)(F)F)C(F)(F)F [1-pentylpyridinium bis(trifluoromethylsulfonyl)amide] + CCO
[1]
Conditions	electrical conductivity [S/m]
x1 = 0.0223	0.403
x1 = 0.0292	0.483
x1 = 0.0374	0.574
x1 = 0.0477	0.669
x1 = 0.0603	0.761
x1 = 0.0725	0.831
x1 = 0.092	0.912
x1 = 0.1279	0.991
x1 = 0.1529	1.01
x1 = 0.1636	1.01
x1 = 0.175	1.01
x1 = 0.2038	0.998
x1 = 0.2608	0.941
x1 = 0.3058	0.882
x1 = 0.3508	0.82
x1 = 0.4166	0.731
x1 = 0.4692	0.662
x1 = 0.5309	0.587
x1 = 0.6063	0.503
x1 = 0.6746	0.437
x1 = 0.7613	0.363
x1 = 0.8138	0.325
x1 = 0.8772	0.283
x1 = 0.9319	0.251
x1 = 1	0.216

CCCCC[n+]1ccccc1.O=S(=O)([N-]S(=O)(=O)C(F)(F)F)C(F)(F)F [1-pentylpyridinium bis(trifluoromethylsulfonyl)amide]
Conditions	electrical conductivity [S/m]
[2]	0.216
